The subject of test [1] is C. neoformans growth, alamar blue, 24 h. Briefly: cell lysis of Cryptococcus neoformans, alamar blue – dry powder, set 3, mechanism study for C. neoformans antifungal project, dose response (AID 743298). On the technique in general: The colour change of resazurin is a common sign of viable cells or microbes.
Assay in test [2]: as above
As to conditions: C. neoformans growth, alamar blue, 24 h; at 35 µM (top of the series).

Several values for one entry are separate records, joined by “and”; a condition that tells them apart may be missing. Equal values may be shown once. Activity calls are given as the source filed them.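 The calls were made as follows: active = fitted AC50 at or below twice the top valid dose for that sample, signal falling; inconclusive = flat curve at 30 to 70 percent inhibition, or bad fit; inactive = the rest.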 Some results are limits rather than exact numbers.

Experimental findings from PubChem BioAssay AID743298 (Broad Institute, 2014) are described below.

With `Fc1ccccc1OCCn1c(=S)[nH]c2ccccc21`, the AC50 in test [1] was 23 µM. Still for that read-out and setting: under `S=c1[nH]c2ccccc2n1CCOc1ccc(Cl)cc1` stands 6.01 µM. As to `Cc1ccc(C)c(OCCn2c(=S)[nH]c3ccccc32)c1`, the activity change, negative = inhibition in test [2] was 26.6% (inactive). Same read-out and setting: under `Cc1cccc(OCCn2c(=S)[nH]c3ccccc32)c1C` stands 51.8% (inactive). Still for that read-out and setting: under `Cc1ccc(C(C)C)c(OCCn2c(=S)[nH]c3c(Cl)cccc32)c1` stands -22.6% (inactive). For `Cc1ccc2c(c1)[nH]c(=S)n2CCOc1ccccc1`, the AC50 in test [1] is 12.2 µM and 12.4 µM. On to `COCc1nc2ccccc2n1CCOc1ccc(C(C)(C)C)cc1`, for which the activity change, negative = inhibition in test [2] is 5.49% (inactive). Turning to `Cc1ccc(C(C)C)c(OCCn2c(=S)[nH]c3cccc(Cl)c32)c1`, the half-maximal activity concentration (AC50) in test [1] was 9.67 µM. With `Cc1ccc(C(C)C)c(OCCn2c(=S)[nH]c3c(F)cccc32)c1`, the activity change, negative = inhibition in test [2] is 16% (inactive). For `Cc1ccc(C(C)C)c(OCCn2c(=S)[nH]c3cccc(F)c32)c1`, in test [1], the AC50 was 13.9 µM. With `COc1ccc(OCCn2c(=S)[nH]c3ccccc32)cc1`, the concentration at half-maximal activity (AC50) in test [1] is 30.3 µM. The same measure, in the same setting: under `CC(C)(C)c1ccc(OCCn2c(=S)[nH]c3ccccc32)cc1` stands 7.11 µM. With `CSc1nc2ccccc2n1CCOc1cc(C)ccc1C(C)C`, in test [2], the activity change, negative = inhibition is -25.9% (inactive).

For `Cc1cccc(OCCn2c(=S)[nH]c3cc(C(F)(F)F)ccc32)c1`, the activity change, negative = inhibition in test [2] is 19% (inactive). `Cc1ccc(OCCn2c(=S)[nH]c3ccccc32)c(C(C)C)c1`: the AC50 in test [1] is 12.3 µM and 10.4 µM.

As for `Cc1ccc(OCCn2c(C)nc3ccccc32)cc1`, in test [1], the AC50 is 21.9 µM. The same measure, in the same setting: under `Cc1cccc(OCCn2c(=S)[nH]c3ccccc32)c1` stands 21.1 µM; under `Fc1ccc2c(c1)[nH]c(=S)n2CCOc1ccccc1`, 27.5 µM and 26.8 µM. For the molecule `Cc1ccc(OCCn2cnc3ccccc32)c(C(C)C)c1`, the AC50 in test [1] was > 70 µM (inactive). On to `CC(C)c1ccccc1OCCn1c(=S)[nH]c2ccccc21`, for which the AC50 in test [1] is 20.1 µM. Take `Cc1ccc(C(C)C)c(OCCn2c(=S)[nH]c3ccc(F)cc32)c1`: the activity change, negative = inhibition in test [2] was 44.9% (inactive). In the case of `Cc1ccc(OCCn2c(=S)[nH]c3ccccc32)cc1`, in test [1], the AC50 was 5.63 µM. Regarding `Cc1ccc(C(C)C)c(OCCn2c(=S)[nH]c3c(C)cccc32)c1`, the activity change, negative = inhibition in test [2] was 59.5% (inactive). Take `Fc1cccc2c1[nH]c(=S)n2CCOc1ccccc1`: the AC50 in test [1] is 20 µM and 22.2 µM. Consider `S=c1[nH]c2ccccc2n1CCOc1ccccc1Cl`, for which, in test [1], the AC50 was 34 µM. As for `Fc1cccc(OCCn2c(=S)[nH]c3ccccc32)c1`, the AC50 in test [1] was 25.6 µM. Turning to `Fc1ccc2[nH]c(=S)n(CCOc3ccccc3)c2c1`, the AC50 in test [1] was 25.2 µM. Consider `S=c1[nH]c2ccccc2n1CCOc1ccccc1`, for which, in test [1], the AC50 is 24.4 µM.

Consider `Cc1cccc(OCCn2c(=S)[nH]c3c(F)cccc32)c1`, for which, in test [2], the activity change, negative = inhibition is -5.91% (inactive) and -16.2% (inactive). With `COc1cccc(OCCn2c(=S)[nH]c3ccccc32)c1`, the AC50 in test [1] was 28.8 µM. Consider `Cc1ccc(OCCn2c(=S)[nH]c3ccccc32)c(C)c1`, for which the activity change, negative = inhibition in test [2] was 12.9% (inactive). Regarding `Cc1ccc(C(C)C)c(OCCn2c(=S)[nH]c3ccccc32)c1`, in test [1], the AC50 is 9.65 µM and 9.22 µM. For `S=c1[nH]c2cc(Cl)ccc2n1CCOc1ccccc1`, in test [2], the activity change, negative = inhibition was 39.6% (inactive). In the case of `Cc1ccc(OCCn2c(SCCO)nc3ccccc32)c(C(C)C)c1`, the AC50 in test [1] was 26 µM. With `Cc1ccc(C(C)C)c(OCCn2c(=S)[nH]c3ccc(Cl)cc32)c1`, the activity change, negative = inhibition in test [2] is 30.7% (inactive). Take `Cc1cccc(OCCn2c(=S)[nH]c3cc(F)ccc32)c1`: in test [1], the AC50 was 12.1 µM and 11.7 µM. In the case of `c1ccc(OCCn2cnc3ccccc32)cc1`, the activity change, negative = inhibition in test [2] is 30.3% (inactive). For `O=c1[nH]c2ccccc2n1CCOc1ccccc1`, in test [1], the AC50 was 34 µM. Consider `CC(C)c1ccccc1NCCn1c(=S)[nH]c2ccccc21`, for which the activity change, negative = inhibition in test [2] is 34.7% (inactive).

Consider `Cc1cccc2[nH]c(=S)n(CCOc3ccccc3)c12`, for which the AC50 in test [1] was 15.1 µM.

Turning to `CCOc1ccc(OCCn2c(=S)[nH]c3ccccc32)cc1`, the AC50 in test [1] was 12.3 µM.

For `Cc1cccc(OCCn2c(=S)[nH]c3ccc(C(F)(F)F)cc32)c1`, the activity change, negative = inhibition in test [2] is 39.4% (inactive). Regarding `CC(C)(C)c1ccc(OCCn2cnc3ccccc32)cc1`, in test [1], the AC50 was 17.5 µM. Regarding `Cc1ccc(C(C)C)c(OCCn2c(CO)nc3ccccc32)c1`, the activity change, negative = inhibition in test [2] is 8.72% (inactive). For `Cc1ccc(C(C)C)c(OCCn2c(=S)[nH]c3cc(F)ccc32)c1`, the activity change, negative = inhibition in test [2] is 55% (inactive). As for `CC(C)(C)c1ccccc1OCCn1c(=S)[nH]c2ccccc21`, the AC50 in test [1] is 11.2 µM.

In the case of `Cc1ccc(OCCn2cnc3ccccc32)cc1`, in test [1], the AC50 is 12 µM. Turning to `COc1ccccc1OCCn1c(=S)[nH]c2ccccc21`, in test [2], the activity change, negative = inhibition was -19.4% (inactive). With `S=c1[nH]c2cccc(Cl)c2n1CCOc1ccccc1`, the AC50 in test [1] was 6.34 µM and 6.02 µM. Still for that read-out and setting: under `CC(C)c1ccc(OCCn2c(=S)[nH]c3ccccc32)cc1` stands 5.77 µM. In the case of `Cc1ccccc1OCCn1c(=S)[nH]c2ccccc21`, the AC50 in test [1] is > 70 µM (inactive). Turning to `Cc1ccc(C(C)C)c(OCCn2c(=S)[nH]c3cccc(C)c32)c1`, the activity change, negative = inhibition in test [2] is 35.3% (inactive).

A word on the AC50: it is the concentration giving half of the maximal activity seen.
